# In PubChem BioAssay AID1332 (Southern Research Institute, 2008):
# Test system: M. tuberculosis H37Rv growth inhibition
# Assay: Confirmatory growth inhibition assay, mycobacterium tuberculosis h37rv, with cytotoxicity (AID 1332);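 further: bacteria incubated 7 days before adding Alamar blue readout reagent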
row,SMILES,IC90
1,CC[C@@]1([C@@H]2O[C@@H]([C@H]3O[C@@](O)(CO)[C@H](C)C[C@@H]3C)C[C@@H]2C)CC[C@H]([C@]2(C)CC[C@]3(C[C@H](O)[C@@H](C)[C@@H]([C@@H](C)[C@@H](OC)[C@H](C)C(=O)O)O3)O2)O1,4.12 µg/mL
2,CCCCc1oc2ccccc2c1C(=O)c1cc(I)c(OCCN(CC)CC)c(I)c1,6.3 µg/mL
3,Cc1c(OCC(F)(F)F)ccnc1CS(=O)c1nc2ccccc2[nH]1 (configuration not stated),10.1 µg/mL
4,O=C(N[C@H](CO)[C@H](O)c1ccc([N+](=O)[O-])cc1)C(Cl)Cl,1.06 µg/mL
5,OCCN1CCN(CC/C=C2/c3ccccc3Sc3ccc(C(F)(F)F)cc32)CC1,5.46 µg/mL
6,N[C@H]1CONC1=O,2.27 µg/mL
7,O=c1c2ccccc2[se]n1-c1ccccc1,2.16 µg/mL
8,CC(=O)N1CCN(c2ccc(OC[C@H]3CO[C@](Cn4ccnc4)(c4ccc(Cl)cc4Cl)O3)cc2)CC1,2.49 µg/mL
9,Clc1ccc(CCC(Cn2ccnc2)Sc2c(Cl)cccc2Cl)cc1 (configuration not stated),1.61 µg/mL
10,Nc1ccc(S(=O)(=O)Nc2cnc3ccccc3n2)cc1,12.7 µg/mL
11,Clc1ccc(C(Cn2ccnc2)OCc2csc3c(Cl)cccc23)c(Cl)c1 (configuration not stated),3.41 µg/mL
12,Fc1ccc(C(c2ccc(F)cc2)N2CCN(C/C=C/c3ccccc3)CC2)cc1,6.62 µg/mL
13,CC(C)(C)c1ccc(C(O)CCCN2CCC(C(O)(c3ccccc3)c3ccccc3)CC2)cc1 (configuration not stated),1.61 µg/mL
14,OCCN1CCN(CCCN2c3ccccc3Sc3ccc(C(F)(F)F)cc32)CC1,7.59 µg/mL
15,COc1ccc(CCN2CCC(Nc3nc4ccccc4n3Cc3ccc(F)cc3)CC2)cc1,6.79 µg/mL
16,CN(C)CCCN1c2ccccc2CCc2ccc(Cl)cc21,9.56 µg/mL

row,SMILES,IC90
1,OCCN1CCN(CCCN2c3ccccc3Sc3ccc(Cl)cc32)CC1,11.7 µg/mL
2,C1CCC(C(CC2CCCCN2)C2CCCCC2)CC1 (configuration not stated),1.99 µg/mL
3,Cc1nnc(NS(=O)(=O)c2ccc(N)cc2)s1,2.6 µg/mL
4,O=C1NCN(c2ccccc2)C12CCN(CCCC(c1ccc(F)cc1)c1ccc(F)cc1)CC2,2.64 µg/mL
5,O=C1OCCN1/N=C/c1ccc([N+](=O)[O-])o1,5.4 µg/mL
6,Clc1ccc(C(Cn2ccnc2)OCc2c(Cl)cccc2Cl)c(Cl)c1 (configuration not stated),2.51 µg/mL
7,Clc1ccccc1C(c1ccccc1)(c1ccccc1)n1ccnc1,5.36 µg/mL
8,CCN(CC)CCNc1ccc(CO)c2sc3ccccc3c(=O)c12,19.4 µg/mL
9,Clc1ccc(COC(Cn2ccnc2)c2ccc(Cl)cc2Cl)c(Cl)c1 (configuration not stated),1.82 µg/mL
10,CC(C)N=c1cc2n(-c3ccc(Cl)cc3)c3ccccc3nc-2cc1Nc1ccc(Cl)cc1,0.04 µg/mL
11,CN(C)CCCN1c2ccccc2Sc2ccc(C(F)(F)F)cc21,7.29 µg/mL
12,CCn1cc(C(=O)O)c(=O)c2cc(F)c(N3CCNC(C)C3)c(F)c21 (configuration not stated),0.258 µg/mL
13,O=C1C=CC(=O)c2c1ccc1c2ccc2ccccc21,2.17 µg/mL
14,Cc1c2ccncc2c(C)c2c1[nH]c1ccccc12,0.17 µg/mL
15,CCCCC(CC)CN1CN(CC(CC)CCCC)CC(C)(N)C1 (configuration not stated),6.85 µg/mL
16,Cc1cc(C(C)(C)CC(C)(C)C)ccc1OCCOCC[N+](C)(C)Cc1ccccc1,4.91 µg/mL
